{"source": "patent US20100069345A1", "about": "“Lanthanide-porphyrin complexes as anti-tumor agents” (priority 2005, published 2010)", "key": {"[1]": {"tested_on": "human cervical epitheloid carcinoma cells (HeLa)", "assay": "MTT cell viability assay, HeLa", "type": "cell-based", "from_the_text": "(§1) Human cervical epitheloid carcinoma cells (HeLa), human hepatocellular carcinoma cells (HepG2 and Hep3B), human breast cancer cells (MCF-7), human coloadenocarcinoma cells (HCT-8), and normal human lung fibroblast cells (CCD-19Lu) were purchased from American Type Culture Collection (ATCC) Rockville, Md., USA. The human hepatocellular cancinoma cells QGY-7703, and the multi-drug resistant cell line QGY-TR50 derived from QGY-7703, were generously provided by Prof. Yong Xie (The Hong Kong University of Science and Technology, Hong Kong PRC). QGY-TR50 cells were isolated and cultured as described (J. Zhou, S. C. Cheng, D. Luo, Y. Xie Biochem. Biophys. Res. Commun. 2001, 280, 1237-1242). Human nasopharyngeal carcinoma cells (SUNE1 and its cisplatin-resistant variant—CNE2) were derived from poorly differentiated NPC in Chinese patients and were generously provided by Dr. S. W. Tsao (The University of Hong Kong, Hong Kong PRC). Cell culture flasks and 96-well microtitre plates were from Nalge Nunc Int. Culture medium, other medium constituents and phosphate buffer saline (PBS) were obtained by Gibco BRL Rockville, Md., USA. Cell Proliferation kit I (MTT) was purchased from Roche. Mannheim, Germany."}, "[2]": {"tested_on": "human hepatocellular carcinoma cells (Hep3B)", "assay": "MTT cell viability assay, Hep3B", "type": "cell-based", "details": "37° C., 48 h, mean ± SD", "from_the_text": "as §1"}, "[3]": {"tested_on": "calf thymus DNA", "assay": "Absorption titration with calf thymus DNA", "type": "binding", "details": "Tris buffer", "procedure": "The calf thymus DNA was purchased from Sigma-Aldrich Chemical Co. and was purified by phenol-chloroform extraction. The DNA was dissolved in buffer (5 mM Tris, 5 mM NaCl, pH 7.2). The concentration (per base pair) or calf thymus DNA was determined spectophotometrically on the basic of ε260, 13200 M^−1cm^−1bp.\nAbsorption Titration. Studying the interaction between drugs and DNA is imperative to pharmaceutical chemistry. Since complexation between a ligand molecule and a nucleic acid leads to optical changes, its binding can be studied using spectroscopic methods like fluorescence and electronic absorption spectroscopy (C. V. Kumar, E. H. Asuncion, J. Am. Chem. Soc. 1993, 115, 8547-8553). The binding interactions of lanthanide (III) porphyrin complexes with calf thymus DNA were investigated using UV-vis spectroscopy and depicted in FIGS. 9 and 10 (selected absorption curves were shown for clear plot). By monitoring wavelengths at 410 nm (complex 1) and 430 nm (complex 2b), successive additions of calf thymus DNA to the respective complexes in Tris buffer solution containing <5% DMSO were done until saturation. Moderate hyprochromicities of 27% and 23% in complexes 1 and 2b were found without significant bathochromic spectral shift. […] The values of binding constant K were calculated from a plot of D/Δεap versus D based on the following equation:\nWhere D is the concentration of DNA, Δεap=|ΔεA−ΔεB| wherein εA=Aobs/[complex], and Δε=|ΔεB−ΔεF|; εB and εF correspond to the extinction coefficients of DNA-bound lanthanide(III) porphyrin complex adduct and its free complex, respectively. By monitoring absorbance at 410 nm (complex 1) and 430 nm (complex 2b), plots of D/Δεap against D are inserted in FIGS. 9 and 10. Linear curves in two graphs were plotted with slopes of 4.63×10^−5 (complex 1) and 3.60×10^−5 (complex 2b) (both R=0.99)."}, "[4]": {"assay": "Stability by UV-visible in presence of reduced glutathione", "type": "physicochemical", "details": "6 mM GSH in DMSO/Tris buffer solution (1:9)", "procedure": "Moreover, concomitant band broadening in spectrum of complex 1 was observed after 24 h. No significant spectral shift and formation of new absorption band were observed. […] Comparing with the spectra of complex 1, the decrease in Soret band intensity of complex 2b is less significant. The intensities are only found to decrease in 2% and 19% after 2 h and 24 h, respectively. Also, there is no significant spectral shift and formation of new absorption band were observed (FIG. 8)."}, "[5]": {"tested_on": "Bid", "assay": "Western blotting analysis, Bid", "type": "cell-based, human", "details": "HeLa, 2 μM, 32 h", "procedure": "(§2) Cells were washed in cold phosphate-buffered saline (PBS) at 4° C. and lysed in a buffer containing 0.05 M Tis.HCl (pH 7.5), 0.25 M NaCl, 0.005 M EDTA, 0.05 M NaF, 1 mM DTT and 1% Triton. Cell lysates were collected and the protein concentration of cell lysates was measured using a Protein detection kit (Bio-Rad). Equal amount of proteins was resolved in a 12% SDS-PAGE gel and transferred onto nitrocellulose membranes. The membrane was blocked with a blocking solution (1×TBS, 0.1% Tween-20 with 5% non-fat dry milk) at room temperature for 1 h, and washed three times with washing buffer (1×TBS, 0.1% Tween-20) for 5 min each. The membrane was then incubated with primary antibody (Caspase 3, Bid, PARP and β-Actin respectively) for overnight at 4° C. The membrane was washed three times with washing buffer for 5 min each before incubation with the corresponding secondary antibody (horse anti-mouse IgG or goat anti-rabbit IgG). Membrane was washed again and signals were detected using an ECL detection kit (Amersham Pharmacia Biotech) followed by the exposure to X-ray films (Fujifilm).\n(§3) After treatment with complex 1 for different time intervals, the expressions of caspase 3, Bid and PARP were detected by the Western blotting analysis. […] Moreover, treatment with complex 1 leads to a reduction in the level of un-cleaved Bid."}, "[6]": {"tested_on": "human hepatocellular carcinoma cells (HepG2)", "assay": "MTT cell viability assay, HepG2", "type": "cell-based", "from_the_text": "as §1"}, "[7]": {"tested_on": "PARP", "assay": "Western blotting analysis, PARP", "type": "cell-based, human", "details": "HeLa, 2 μM, after the treatment", "procedure": "as §2, §3"}, "[8]": {"details": "IC50 of cisplatin divided by IC50 of complex"}}}
{"substance": "[Yb2(OEP)2](μ-OH)2 [Complex 1]", "values": [{"measurement": "IC50 ratio cisplatin/complex, HeLa", "setting": "[1]; [8]", "value": 30.2}, {"measurement": "IC50", "setting": "[1]; MTT, 37° C., 48 h, mean ± SD of three experiments", "value": "470 ± 300", "unit": "nM"}, {"measurement": "IC50", "setting": "[2]", "value": "780 ± 60", "unit": "nM"}, {"measurement": "hyprochromicity on addition of calf thymus DNA", "setting": "[3]; <5% DMSO, until saturation, 410 nm (1), 430 nm (2b)", "value": 27, "unit": "%"}, {"measurement": "binding constant K with calf thymus DNA", "setting": "[3]; UV-vis absorption titration, 20° C.", "value": "(1.59±0.3)×10^6 mol^−1dm^3"}, {"measurement": "decrease in Soret band intensity, reduced glutathione, 2 h", "setting": "[4]; 2 h", "value": 7, "unit": "%"}, {"measurement": "decrease in Soret band intensity, reduced glutathione, 24 h", "setting": "[4]; 24 h", "value": 52, "unit": "%"}, {"measurement": "expression of Bid", "setting": "[5]", "value": "decrease dramatically"}, {"measurement": "IC50 ratio cisplatin/complex, HepG2", "setting": "[6]; [8]", "value": 22.7}, {"measurement": "IC50", "setting": "[6]; MTT, 37° C., 48 h, mean ± SD", "value": "210 ± 10", "unit": "nM"}, {"measurement": "level of cleaved PARP (85 kDa)", "setting": "[7]", "value": "gradual increase"}]}
